Measured values from US12098145B2 (Libra Therapeutics, Inc., priority 2022, dated 2024).

Biological target: T1, TRPML1 (Homo sapiens, UniProt Q9GZU1)
T1 construct: expressed in transfected cells; host or cells: HEK T-REx cells stably expressing GCaMP6f and TRPML1
Test: Cellular TRPML1 assay (FLIPR, GCaMP6f calcium read-out)
Assay type: cell-based
Conditions: HEKT-REx/GCaMP6f/TRPML1 cells, FLIPR TETRA, kinetic response over 300 seconds; read-out: TRPML1 FLIPR pEC50 (converted)
Experimental: Example A: Cellular TRPML1 Assay
The final clone for the TRPML1 assay is HEKT-REx/GCaMP6f/TRPML1. GCaMP6f is a genetically encoded calcium indicator that is stably expressed in this cell line and used as a fluorescent read-out.
Experiments were performed in 384 MTP format. Cells are seeded at 15000 cells/well in 20 μl/well of Optimem+0.5% FBS without selection antibiotics. Twenty-four hours later, cells are assayed for the response to various compounds using the Ca^2+ sensitive GCaMP6f protein stably expressed in the cells as readout.
The experiment was performed in a 384-well format according to the following procedures: • 24 h after seeding, the cells were pre-incubated at room temperature for about 10 min. • Started the experiment at the FLIPR^TETRA by injecting 10 μL/w of 3× concentrated test compounds and controls in Ca^2+ free Tyrode's buffer. Monitored the kinetic response over a period of 300 seconds. • Final DMSO concentration: 0.5%
Data from FLIPR^TETRA measurements were analyzed with the Genedata Screener© software.

T1 sequence (Q9GZU1 whole entry): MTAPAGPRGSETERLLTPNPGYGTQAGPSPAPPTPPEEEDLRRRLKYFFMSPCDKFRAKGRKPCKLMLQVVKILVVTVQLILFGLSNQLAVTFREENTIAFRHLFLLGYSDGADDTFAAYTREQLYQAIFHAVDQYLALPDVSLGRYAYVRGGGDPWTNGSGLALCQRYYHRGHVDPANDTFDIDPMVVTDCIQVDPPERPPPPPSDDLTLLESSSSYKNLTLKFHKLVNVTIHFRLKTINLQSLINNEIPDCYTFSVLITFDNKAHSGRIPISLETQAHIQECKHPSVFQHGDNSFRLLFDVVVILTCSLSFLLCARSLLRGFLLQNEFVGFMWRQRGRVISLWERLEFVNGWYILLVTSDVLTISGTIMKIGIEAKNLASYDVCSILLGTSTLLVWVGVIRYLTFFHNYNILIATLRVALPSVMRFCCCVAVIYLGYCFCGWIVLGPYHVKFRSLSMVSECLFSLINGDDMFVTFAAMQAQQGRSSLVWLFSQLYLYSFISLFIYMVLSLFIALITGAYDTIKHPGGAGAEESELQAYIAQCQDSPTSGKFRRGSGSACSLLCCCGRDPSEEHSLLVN

| EC50 [µM] | SMILES |
| --- | --- |
| 1 to 10 | O=C(Nc1ccc(OC2CCCCC2)c(F)c1)c1nc(N2CCCC2)oc1CC(F)(F)F [Example 65, N-(4-(cyclohexyloxy)-3-fluorophenyl)-2-(pyrrolidin-1-yl)-5-(2,2,2-trifluoroethyl)oxazole-4-carboxamide] |
| 1 to 10 | O=C(Nc1ccc(OC2CCCOC2)c(F)c1)c1nc(N2CCCC2)oc1CC(F)(F)F (centres unmarked) [Example 66, N-[3-fluoro-4-(oxan-3-yloxy)phenyl]-2-(pyrrolidin-1-yl)-5-(2,2,2-trifluoroethyl)oxazole-4-carboxamide] |
| 1 to 10 | O=C(Nc1ccc(OC2CCCC23CCC3)c(F)c1)c1nc(N2CCCC2)oc1CC(F)(F)F (centres unmarked) [Example 67, N-(3-fluoro-4-{spiro[3.4]octan-5-yloxy}phenyl)-2-(pyrrolidin-1-yl)-5-(2,2,2-trifluoroethyl)oxazole-4-carboxamide] |
| 0.01 to 1 | O=C(Nc1ccc(O[C@H]2COCC2(F)F)c(F)c1)c1nc(N2CCCC2)oc1CC(F)(F)F [Example 69, (S)—N-(4-((4,4-difluorotetrahydrofuran-3-yl)oxy)-3-fluorophenyl)-2-(pyrrolidin-1-yl)-5-(2,2,2-trifluoroethyl)oxazole-4-carboxamide] |
| 0.01 to 1 | CC1(C)CN(c2nc(C(=O)Nc3cc(F)c(OC4COCC4(F)F)c(F)c3)c(CC(F)(F)F)o2)C1 (centres unmarked) [Example 70, N-{4-[(4,4-difluorotetrahydrofuran-3-yl)oxy]-3,5-difluorophenyl}-2-(3,3-dimethylazetidin-1-yl)-5-(2,2,2-trifluoroethyl)oxazole-4-carboxamide] |
| 1 to 10 | CN(c1ccc(NC(=O)c2nc(N3CC4(C3)CC(F)(F)C4)oc2CC(F)(F)F)cc1F)C1CCCC1 [Example 79, N-{4-[cyclopentyl(methyl)amino]-3-fluorophenyl}-2-{6,6-difluoro-2-azaspiro[3.3]heptan-2-yl}-5-(2,2,2-trifluoroethyl)oxazole-4-carboxamide] |
| 1 to 10 | CN(c1ccc(NC(=O)c2nc(N3CCCC3)oc2CC(F)(F)F)cc1F)C1CC2CC2C1 (centres unmarked) [Example 80, N-(4-{bicyclo[3.1.0]hexan-3-yl(methyl)amino}-3-fluorophenyl)-2-(pyrrolidin-1-yl)-5-(2,2,2-trifluoroethyl)oxazole-4-carboxamide] |
| 1 to 10 | CN(c1c(F)cc(NC(=O)c2nc(N3CCCC3)oc2CC(F)(F)F)cc1F)C1CCCC1(F)F (centres unmarked) [Example 81, N-{4-[(2,2-difluorocyclopentyl)(methyl)amino]-3,5-difluorophenyl}-2-(pyrrolidin-1-yl)-5-(2,2,2-trifluoroethyl)oxazole-4-carboxamide] |
| 1 to 10 | O=C(Nc1ccc(OC2CCCC2)c(O)c1)c1nc(N2CCCC2)oc1CC(F)(F)F [Example 85, N-(4-(cyclopentyloxy)-3-hydroxyphenyl)-2-(pyrrolidin-1-yl)-5-(2,2,2-trifluoroethyl)oxazole-4-carboxamide] |
| 1 to 10 | O=C(Nc1ccc(OC2CCCC2(F)F)c(O)c1)c1nc(N2CCCC2)oc1CC(F)(F)F (centres unmarked) [Example 86, N-{4-[(2,2-difluorocyclopentyl)oxy]-3-hydroxyphenyl}-2-(pyrrolidin-1-yl)-5-(2,2,2-trifluoroethyl)-1,3-oxazole-4-carboxamide] |
| 10 to 100 | CCN(c1ccc(NC(=O)c2nc(N3CCCC3)oc2CC(F)(F)F)cc1F)C1CCCC1(F)F (centres unmarked) [Example 87, N-(4-((2,2-difluorocyclopentyl)(ethyl)amino)-3-fluorophenyl)-2-(pyrrolidin-1-yl)-5-(2,2,2-trifluoroethyl)oxazole-4-carboxamide] |
| 10 to 100 | NCC1CN(c2nc(C(=O)Nc3ccc(OC4CCCC4(F)F)c(F)c3)c(CC(F)(F)F)o2)C1 (centres unmarked) [Example 88, 2-[3-(aminomethyl)azetidin-1-yl]-N-{4-[(2,2-difluorocyclopentyl)oxy]-3-fluorophenyl}-5-(2,2,2-trifluoroethyl)oxazole-4-carboxamide] |
| 1 to 10 | Cc1oc(N2CC3(C2)CC(F)(F)C3)nc1C(=O)Nc1ccc(N2CCCCC2)c(F)c1 [Example 89, 2-(6,6-difluoro-2-azaspiro[3.3]heptan-2-yl)-N-(3-fluoro-4-(piperidin-1-yl)phenyl)-5-methyloxazole-4-carboxamide] |
| 10 to 100 | Cc1oc(N2CCC3(CCC3)C2)nc1C(=O)Nc1ccc(N2CCCCC2)c(F)c1 [Example 92, N-(3-fluoro-4-(piperidin-1-yl)phenyl)-5-methyl-2-(6-azaspiro[3.4]octan-6-yl)oxazole-4-carboxamide] |
| 10 to 100 | Cc1oc(N2CCCC2CO)nc1C(=O)Nc1ccc(N2CCCCC2)c(F)c1 (centres unmarked) [Example 93, N-(3-fluoro-4-(piperidin-1-yl)phenyl)-2-(2-(hydroxymethyl)pyrrolidin-1-yl)-5-methyloxazole-4-carboxamide] |
| 10 to 100 | Cc1oc(N2CCN(C3CC3)CC2)nc1C(=O)Nc1ccc(N2CCCCC2)c(F)c1 [Example 94, 2-(4-cyclopropylpiperazin-1-yl)-N-(3-fluoro-4-(piperidin-1-yl)phenyl)-5-methyloxazole-4-carboxamide] |

| EC50 [µM] | SMILES |
| --- | --- |
| 10 to 100 | Cc1oc(NC2CCCC23CCCO3)nc1C(=O)Nc1ccc(N2CCCCC2)c(F)c1 (centres unmarked) [Example 95, 2-((1-oxaspiro[4.4]nonan-6-yl)amino)-N-(3-fluoro-4-(piperidin-1-yl)phenyl)-5-methyloxazole-4-carboxamide] |
| 10 to 100 | Cc1oc(N2CCC(O)C2)nc1C(=O)Nc1ccc(N2CCCCC2)c(F)c1 (centres unmarked) [Example 97, N-(3-fluoro-4-(piperidin-1-yl)phenyl)-2-(3-hydroxypyrrolidin-1-yl)-5-methyloxazole-4-carboxamide] |
| 10 to 100 | COCc1oc(N2CCCC2)nc1C(=O)Nc1ccc(OC2CCCC2)c(F)c1 [Example 101, N-[4-(cyclopentyloxy)-3-fluorophenyl]-5-(methoxymethyl)-2-(pyrrolidin-1-yl)oxazole-4-carboxamide] |
| 1 to 10 | COCc1oc(N2CCCC2)nc1C(=O)Nc1cc(F)c(N2CCCCC2)c(F)c1 [Example 102, N-[3,5-difluoro-4-(piperidin-1-yl)phenyl]-5-(methoxymethyl)-2-(pyrrolidin-1-yl) oxazole-4-carboxamide] |
| 10 to 100 | COCc1oc(N2CCCC2C)nc1C(=O)Nc1ccc(N2CCCCC2)c(F)c1 (centres unmarked) [Example 103, N-(3-fluoro-4-(piperidin-1-yl)phenyl)-5-(methoxymethyl)-2-(2-methylpyrrolidin-1-yl)oxazole-4-carboxamide] |
| 1 to 10 | COCc1oc(N2CC3(C2)CC(F)(F)C3)nc1C(=O)Nc1ccc(N2CCCCC2)c(F)c1 [Example 104, 2-{6,6-difluoro-2-azaspiro[3.3]heptan-2-yl}-N-[3-fluoro-4-(piperidin-1-yl)phenyl]-5-(methoxymethyl)oxazole-4-carboxamide] |
| 1 to 10 | COCc1oc(N2CCCC2)nc1C(=O)Nc1ccc(OC2CCCC2(F)F)c(F)c1 (centres unmarked) [Example 105, N-(4-((2,2-difluorocyclopentyl)oxy)-3-fluorophenyl)-5-(methoxymethyl)-2-(pyrrolidin-1-yl)oxazole-4-carboxamide] |
| 10 to 100 | Cc1oc(N2CCC(CN3CCC3)C2)nc1C(=O)Nc1ccc(N2CCCCC2)c(F)c1 (centres unmarked) [Example 106, 2-(3-(azetidin-1-ylmethyl)pyrrolidin-1-yl)-N-(3-fluoro-4-(piperidin-1-yl)phenyl)-5-methyloxazole-4-carboxamide] |
| 10 to 100 | Cc1oc(N2CCC(CN3CCC(F)(F)CC3)C2)nc1C(=O)Nc1ccc(N2CCCCC2)c(F)c1 (centres unmarked) [Example 107, 2-(3-((4,4-difluoropiperidin-1-yl)methyl)pyrrolidin-1-yl)-N-(3-fluoro-4-(piperidin-1-yl)phenyl)-5-methyloxazole-4-carboxamide] |
| 1 to 10 | CC(C)OCc1oc(N2CCCC2)nc1C(=O)Nc1ccc(OC2CCCC2(F)F)c(F)c1 (centres unmarked) [Example 109] |
| 1 to 10 | CCCc1oc(N2CCCC2)nc1C(=O)Nc1ccc(OC2CCCC2(F)F)c(F)c1 (centres unmarked) [Example 110, N-(4-((2,2-difluorocyclopentyl)oxy)-3-fluorophenyl)-5-propyl-2-(pyrrolidin-1-yl)oxazole-4-carboxamide] |
| 1 to 10 | Cc1oc(-n2cccc2)nc1C(=O)Nc1ccc(N2CCCCC2)c(F)c1 [Example 113, N-(3-fluoro-4-(piperidin-1-yl)phenyl)-5-methyl-2-(1H-pyrrol-1-yl)oxazole-4-carboxamide] |
| 10 to 100 | Cc1oc(N2CCCCC2)nc1C(=O)Nc1ccc(N2CCCCC2)c(F)c1 [Example 114, N-(3-fluoro-4-(piperidin-1-yl)phenyl)-5-methyl-2-(piperidin-1-yl)oxazole-4-carboxamide] |
| 10 to 100 | Cc1oc(N(C)C(C)C)nc1C(=O)Nc1ccc(N2CCCCC2)c(F)c1 [Example 115, N-(3-fluoro-4-(piperidin-1-yl)phenyl)-2-(isopropyl(methyl)amino)-5-methyloxazole-4-carboxamide] |
| 10 to 100 | Cc1oc(N(C)C)nc1C(=O)Nc1ccc(N2CCCCC2)c(F)c1 [Example 117, 2-(dimethylamino)-N-(3-fluoro-4-(piperidin-1-yl)phenyl)-5-methyloxazole-4-carboxamide] |

| SMILES | EC50 [µM] |
| --- | --- |
| Cc1oc(N2C3CCC2COC3)nc1C(=O)Nc1ccc(N2CCCCC2)c(F)c1 [Example 98, 2-(3-oxa-8-azabicyclo[3.2.1]octan-8-yl)-N-(3-fluoro-4-(piperidin-1-yl)phenyl)-5-methyloxazole-4-carboxamide] | 10 to 100 |
